The values that follow are results of earlier work, collected in US20110104257A1, “POLYMORPHISMS PREDICTIVE OF PLATINUM-COORDINATING COMPOUND-INDUCED OTOTOXICITY” (priority 2008, published 2011).

Where two headings read alike, the source gives them in different places.

Series [1] relates to aminoglycoside ototoxicity. The settings on record: Guinea pig.
Series [2] relates to cisplatin ototoxicity. More on the design: key to the marks not given beside the values. The settings on record: Hamster.
Series [3] concerns cisplatin ototoxicity. The settings on record: Rat.
For series [4], the system named is aminoglycoside ototoxicity. More on the design: key to the marks not given beside the values. The settings on record: Gentamicin; Rat.
The test system of series [5] is cisplatin ototoxicity. The settings on record: species cell empty.
Series [6] relates to aminoglycoside ototoxicity. More on the design: key to the marks not given beside the values. As to conditions: Gentamicin; Mouse.
The subject of series [7] is cisplatin ototoxicity. More on the design: key to the marks not given beside the values. As to conditions: Chinchilla.
The conditions of series [8]: mice.
Series [9] relates to cisplatin ototoxicity. More on the design: key to the marks not given beside the values. As to conditions: Guinea pig.
For Efficacy of protective agent against aminoglycoside ototoxicity in this document: key: +, low efficacy; ++, moderate efficacy; +++, high efficacy.

Consider `O=C(O)CCCC[C@@H]1CCSS1` (racemic) [Lipoic acid], for which the “Efficacy of protective agent against aminoglycoside ototoxicity” value (from here on “Efficacy of protective agent”) in series [1] (Amikacin) is given as “+++”.

Take `c1ccc(-c2ccccn2)nc1` [2,2-DPD, 2,2′-dipyridyl]: the “Efficacy of protective agent” value in [1] (Gentamicin) was “++”.

As for `NCC[C@H](O)C(=O)N[C@@H]1C[C@H](N)[C@@H](O[C@H]2O[C@H](CN)[C@@H](O)[C@H](O)[C@H]2O)[C@H](O)[C@H]1O[C@H]1O[C@H](CO)[C@@H](O)[C@H](N)[C@H]1O` [Amakacin preconditioning], the “Efficacy of protective agent” value in series [1] (Amikacin) was “++”.

As for `NCCCNCCSP(=O)(O)O` [Amifostine], the “Degree of protection against cisplatin ototoxicity” value (shortened to “Degree of protection”) in the series on cisplatin ototoxicity [2] is “+++”.

Consider `N=C(N)NN` [Aminoguanidine], for which the “Degree of protection” value with cisplatin ototoxicity [3] is “++”.

On to `CSCC[C@H](NC(=O)[C@H](Cc1ccccc1)NC[C@@H](NC[C@@H](N)CS)C(C)C)C(=O)O` [B581], for which the “Efficacy of protective agent” value in series [4] is reported as “++”.

`OC[C@H]1O[C@@H](n2cnc3c(NC4CCCC4)nc(Cl)nc32)[C@H](O)[C@@H]1O` [CCPA, 2-chloro-N-cyclopentyladenosine]: the “Degree of protection” value in the series with cisplatin ototoxicity [5] is recorded as “++”.

Take `CCSCc1ccc2c(c1)c1c3c(c4c5cc(CSCC)ccc5n5c4c1n2[C@H]1C[C@](O)(C(=O)OC)[C@]5(C)O1)CNC3=O` [CEP1347]: the “Efficacy of protective agent” value in [1] (Gentamicin) is “+”.

Consider `CSCC[C@@H](N)C(=O)O` [D-methionine], for which, in the series on cisplatin ototoxicity [3], the “Degree of protection” value is “+++”. For the same molecule, in [1] (Gentamicin), the “Efficacy of protective agent” value is on record as “++”.

In the case of `C=C(CC)C(=O)c1ccc(OCC(=O)O)c(Cl)c1Cl` [Ethacrynic acid], the “Efficacy of protective agent” value in series [1] (Gentamicin) is “+”.

Take `COC(=O)[C@H](CCSC)NC(=O)c1ccc(NC[C@@H](N)CS)cc1-c1ccccc1` [FTI277]: the “Efficacy of protective agent” value in series [4] was “+++”.

Consider `Nc1nc2c(ncn2[C@@H]2O[C@H](COP(=O)(O)OP(O)(O)=S)[C@@H](O)[C@H]2O)c(=O)[nH]1` [GDP-βs], for which the “Efficacy of protective agent” value in series [4] was “+++”.

In the case of `[Cl-].[Cl-].[Mn+2].c1cc2nc(c1)CN[C@@H]1CCCC[C@H]1NCCN[C@@H]1CCCC[C@H]1NC2` [M40403], in series [6], the “Efficacy of protective agent” value was “++”. Also, the “Degree of protection” value in the series with cisplatin ototoxicity [5] is 0.

As for `NS(=O)(=O)C#Cc1ccccc1` [Pifithrin], the “Degree of protection” value in the series with cisplatin ototoxicity [5] was “++”.

On to `C[C@H](Cc1ccccc1)Nc1ncnc2c1ncn2[C@@H]1O[C@H](CO)[C@@H](O)[C@H]1O` [R-PIA], for which the “Degree of protection” value with cisplatin ototoxicity [7] was “++”.

Take `C[S+](CC[C@H](N)C(=O)O)C[C@H]1O[C@@H](n2cnc3c(N)ncnc32)[C@H](O)[C@@H]1O` (stereo partly shown) [SAM, S-adenosyl methionine]: the “toxicity as monitored by renal dysfunction (creatinine and BUN)” value in series [8] was “not toxic”.

For `CC(S)C(=O)NCC(=O)O` (stereo not shown) [Tiopronin], the “Degree of protection” value in the series with cisplatin ototoxicity [3] is reported as “++”.

As for `Cc1c(C)c2c(c(C)c1O)CCC(C)(C(=O)O)O2` (stereo not shown) [Trolox], the “Degree of protection” value with cisplatin ototoxicity [9] was “++”.

Consider `N.N.[Cl][Pt][Cl]` [cisplatin], for which the “severe, permanent, bilateral hearing loss, share of patients” value was 10-25% (adult patients), 41-61% (children) and 50% (patients receiving high doses (>400 mg/m^2)). Further, the “Permanent hearing loss, frequency” value (children less than 5 years old) is on record as 48%. The “Permanent hearing loss, share of patients” value (patients receiving standard doses of cisplatin) is given as 25%.

With `Cc1c(C)c2c(c(C)c1O)CC[C@@](C)(CCC[C@H](C)CCC[C@H](C)CCCC(C)C)O2` [α-Tocopherol], the “Degree of protection” value in the series with cisplatin ototoxicity [3] and in the series on cisplatin ototoxicity [9] was “++” throughout. The “Efficacy of protective agent” value in series [1] (Gentamicin) is given as “+++”.

With Glutathione ester, the “Degree of protection” value with cisplatin ototoxicity [3] is “+”.

On to Methylthiobenzoic acid, for which the “Degree of protection” value with cisplatin ototoxicity [3] was “++”.

For the molecule SOD1: SOD1, protective agent, the “Efficacy of protective agent” value in series [1] (Kanamycin + Ethacrynic acid) was “++”.

Z-DEVD-fluoromethyl ketone: in the series on cisplatin ototoxicity [9], the “Degree of protection” value is listed as “+++”.

Consider Z-LEKD-fluoromethyl ketone, for which the “Degree of protection” value in the series with cisplatin ototoxicity [9] is recorded as “+++”.

B1: SOD2: SOD2, protective agent (protein, UniProt P04179 25-222, looked up)
Superoxide dismutase [Mn], …: KHSLPDLPYDYGALEPHINAQIMQLHHSKHHAAYVNNLNVTEEKYQEALAKGDVTAQIALQPALKFNGGGHINHSIFWTNLSPNGGGEPKGELLEAIKRDFGSFDKFKEKLTAASVGVQGSGWGWLGFNKERGHLQIAACPNQDPLQGTTGLIPLLGIDVWEHAYYLQYKNVRPDYLKAIWNVINWENVTERYMACKK
With B1, the “Efficacy of protective agent” value in series [1] (Kanamycin + Ethacrynic acid) is listed as “++”.
